Results published in patent publication US20150306081A1, “Chemotherapy for Drug-Resistant Cancer Cells” (THE UNIVERSITY OF SYDNEY, priority 2012, published 2015).

Key:
[1] = tested on: Pgp-expressing KBV1 cells; experiment: MTT proliferation assay, KBV1 cells; format: cell-based, Human; settings: 72 h
[2] = tested on: non-Pgp expressing KB31 cells; experiment: MTT proliferation assay, KB31 cells; format: cell-based, Human; settings: Val 1 μM, Ela 0.1 μM, 72 h
[3] = tested on: non-Pgp expressing 2008 cells; experiment: MTT proliferation assay, 2008 cells; format: cell-based; settings: 2008 cells, Val 1 μM, Ela 0.1 μM
Experimental: The 2008 ovarian carcinoma cell line and the PAC-resistant 2008/P200A cell line (grown in 200 ng/mL of PAC) were kindly provided by Dr. John Allen (Centenary Institute, Sydney, Australia). Cells were grown in Dulbecco's modified Eagle's medium (DMEM; Life Technologies) with 10% (v/v) fetal calf serum (Sigma-Aldrich, St. Louis, Mo.) and supplemented with the following additions from Life Technologies: 1% (v/v) sodium pyruvate, 1% (v/v) non-essential amino acids, 100 U/mL penicillin, 100 μg/mL streptomycin, 2 mM L-glutamine and 0.28 μg/mL fungizone. The cells were then incubated at 37° C. in a humidified atmosphere of 5% CO2 and 95% air.
The effect of anti-cancer agents on cellular proliferation was examined using the MTT [3-(4,5-dimethylthiazol-2-yl)-2,5-diphenyl tetrazolium] method. In this assay, 3×10^3 cells/well were seeded in 96-well plates in 100 μL of media. The next day, serially diluted drugs of interest were added. […] The cells were incubated at 37° C. in a humidified atmosphere containing 5% CO2 and 95% air for 72 h. After this incubation, 10 μL of MIT (5 mg/mL) was added to each well and the incubation continued at 37° C. for 2 h. After solubilization of the cells with 100 μL of 10% SDS-50% isobutanol in 10 mM HCl, the plates were read at 570 nm using a scanning multi-well spectrophotometer (Victor™ Multilabel Counter plate reader; Perkin Elmer, Australia). Results were analyzed to calculate the concentration of chelator or complex necessary to reduce the absorbance to 50% (IC50) of the control.

Pgp [4] = target: T1, Pgp (Homo sapiens, UniProt P08183); experiment: Pgp-ATPase activity assay (Pgp-Glo); settings: 40 min
T1 sequence (P08183 whole entry): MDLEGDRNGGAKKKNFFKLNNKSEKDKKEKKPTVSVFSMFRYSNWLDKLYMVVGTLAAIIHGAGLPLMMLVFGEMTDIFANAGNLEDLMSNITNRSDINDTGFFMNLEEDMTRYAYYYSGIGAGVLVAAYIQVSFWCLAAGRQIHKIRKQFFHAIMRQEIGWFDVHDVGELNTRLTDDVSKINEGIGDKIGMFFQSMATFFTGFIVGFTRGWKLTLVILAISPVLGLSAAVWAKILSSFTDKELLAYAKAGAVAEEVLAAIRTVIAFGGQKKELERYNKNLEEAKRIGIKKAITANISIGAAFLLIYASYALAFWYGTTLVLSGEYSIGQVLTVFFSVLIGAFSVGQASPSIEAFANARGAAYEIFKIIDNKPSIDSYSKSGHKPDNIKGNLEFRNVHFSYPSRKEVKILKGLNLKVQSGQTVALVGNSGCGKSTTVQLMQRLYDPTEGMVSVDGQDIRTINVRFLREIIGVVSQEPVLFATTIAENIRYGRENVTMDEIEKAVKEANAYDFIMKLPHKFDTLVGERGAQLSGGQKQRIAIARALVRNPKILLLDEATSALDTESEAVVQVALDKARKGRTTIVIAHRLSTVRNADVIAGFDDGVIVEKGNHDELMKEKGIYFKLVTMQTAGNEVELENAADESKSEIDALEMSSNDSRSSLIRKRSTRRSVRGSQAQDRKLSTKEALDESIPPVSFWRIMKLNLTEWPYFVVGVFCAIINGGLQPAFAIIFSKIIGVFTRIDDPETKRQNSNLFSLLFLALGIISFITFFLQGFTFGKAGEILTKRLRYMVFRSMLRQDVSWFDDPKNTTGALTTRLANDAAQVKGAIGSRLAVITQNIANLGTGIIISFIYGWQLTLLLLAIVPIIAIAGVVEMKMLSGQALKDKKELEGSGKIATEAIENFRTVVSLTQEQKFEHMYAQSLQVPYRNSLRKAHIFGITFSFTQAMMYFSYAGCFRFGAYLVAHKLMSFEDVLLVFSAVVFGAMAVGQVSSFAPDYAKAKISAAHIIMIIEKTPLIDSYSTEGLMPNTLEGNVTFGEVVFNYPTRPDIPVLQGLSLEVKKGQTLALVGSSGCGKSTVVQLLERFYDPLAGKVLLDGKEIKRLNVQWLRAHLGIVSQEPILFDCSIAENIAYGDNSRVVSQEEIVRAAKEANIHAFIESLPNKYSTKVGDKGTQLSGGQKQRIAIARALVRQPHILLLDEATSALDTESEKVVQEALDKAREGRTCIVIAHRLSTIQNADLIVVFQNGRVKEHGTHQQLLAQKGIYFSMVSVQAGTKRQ
Experimental: The ATPase activities of Pgp were determined using Pgp-enriched membranes and a luminescent ATP detection kit (Pgp-Glo Assay Kit, Promega, USA) according to the manufacturer's instructions. Briefly, Pgp membranes (0.5 mg/mL) and Mg(II)-ATP (5 mM) were incubated in the absence or presence of sodium orthovanadate (100 μM) for 40 min/37° C. and ATP detected as a luciferase-generated luminescent signal. Basal Pgp-ATPase activities were determined as the difference between the ATP hydrolysis in the presence or absence of sodium orthovanadate. Verapamil-stimulated Pgp-ATPase activity was measured in the presence of the Pgp control substrate, verapamil (200 μM).
Test substrates (Dp44mT and Bp4eT) of interest were dissolved in dimethyl sulfoxide. The final concentration of DMSO in the assay medium was less than 1%.
The Pgp Glo™ ATPase assay (Promega, Madison, Wis.) was used to assess if Dp44mT and Bp4eT are substrates of Pgp. The ATPase assay measures the Pgp-mediated ATPase activity of Pgp by quantitating ATP consumption in the presence of the compounds of interest after incubation with purified membrane proteins containing high levels of Pgp. […] The basal ATPase activity of Pgp is compared to the ATPase activity stimulated or inhibited by the compounds of interest.

2008 cells = experiment: Uptake of 14C-Dp44mT, 2008 cells; format: cell-based; settings: NH4Cl, MA or CLQ pre-incubation
Experimental: For the uptake assay, each 35 mm culture dish containing 5×10^5 cells was incubated with ^14C-doxorubicin, ^3H-vinblastine or ^14C-Dp44mT (all at 1 μCi) for 30 min/37° C. Cells were then washed on ice three times with ice-cold PBS and collected for analysis. Drug uptake was calculated as the number of drug molecules/cell. […] For studies using lysosomotropic agents, cells were pre-incubated with NH4Cl (5 mM), CLQ (100 μM) or MA (100 μM) for 30 min/37° C. prior to ^14C-Dp44mT uptake. […] For efflux assays, the same labeling procedure was conducted as in the uptake assay. […] After this procedure, the overlying media was removed using a Pasteur pipette and then placed in a counting vial. The cells were removed from the plate in 1 mL of PBS and then dispensed into a separate counting vial. The radiolabeled-drug efflux was calculated as a percentage of the total drug uptake by the cells found at zero time.

Pgp [5] = target: T1, Pgp; experiment: Rhodamine 123 accumulation assay, KBV1 cells; format: cell-based; settings: 0.1 μM or above
Experimental: (§1) Cells were then harvested and resuspended in ice-cold PBS and kept on ice until flow cytometric analysis (see below).
(§2) The dyes, Rh123 and acridine orange were detected with the FACS Canto flow cytometer (BD Biosciences) and 10,000 events were acquired for every sample. Data analysis was performed using FlowJo software, version 7.5.5 (Tree Star Inc., Ashland, OR).

[6] = tested on: non-Pgp expressing KB31 cells; experiment: Rhodamine 123 accumulation assay, KB31 cells; format: cell-based, Human; settings: increased concentrations
Experimental: as §1, §2

KBV1 cells = experiment: Lysosomal integrity, acridine orange flow cytometry, KBV1 cells; format: cell-based, Human
Experimental: Lysotracker® red (Life Technologies) and acridine orange (Sigma-Aldrich) are dyes showing high specificity for lysosomes and were used to determine lysosomal membrane permeability (LMP). The Lysotracker® red was visually assessed by fluorescence microscopy utilizing a Zeiss Axio Observer.Z1 Fluorescence Microscope equipped with an AxioCam camera (Zeiss, Oberkochen, Germany) and acridine orange was quantified by flow cytometry (see below).
Briefly, cells were incubated with Lysotracker® red (50 nM) for 15 min/37° C. or acridine orange (20 nM) for 15 min/37° C., washed on ice 3 times with ice-cold PBS and then incubated with Cu[Dp44mT] (25 μM) for 30 min/37° C. or Dp44mT alone (25 μM) for 30 min or 24 h/37° C.
as §2

[7] = tested on: Pgp-expressing KBV1 cells; settings: previously reported (ref. 5); cited from earlier work

CN(C)C(=S)NN=C(c1ccccn1)c1ccccn1 [Dp44mT, di-2-pyridylketone 4,4-dimethyl-3-thiosemicarbazone]
more cytotoxic in drug-resistant KBV1 cells compared to KB31 cells [1]: 31 fold
change of cytotoxicity in presence of Pgp inhibitors Val or Ela ([1]; KBV1 cells, Val 1 μM, Ela 0.1 μM): clear decrease in the cytotoxicity
change of cytotoxicity in presence of Pgp inhibitors Val or Ela [2]: did not significantly alter their cytotoxicity
change of cytotoxicity in presence of Pgp inhibitors Val or Ela [3]: no significant (p>0.05) change
stimulation of basal catalytic (ATPase) activity of Pgp (Pgp [4]): 3- to 8 fold
accumulation after pre-treatment with lysosomotropic agents (2008 cells): did not significantly affect
increased accumulation of Rh123 (Pgp [5]): up to two fold
effect on Rh123 accumulation [6]: did not significantly affect Rh123 accumulation
lysosomal integrity (acridine orange) (KBV1 cells; 30 min incubation): did not compromise lysosomal integrity
lysosomal integrity (acridine orange) (KBV1 cells; KBV1 cells, 25 μM, 24 h): decreased lysosomal integrity
lysosomal damage in presence of Val (KBV1 cells; KBV1 cells, 24 h, with Pgp inhibitor Val): significantly (p<0.01) reduced lysosomal damage
cytotoxicity to KBV1 cells relative to KB31 cells [7]: increased cytotoxicity
